Data: patent US20240085429A1, “ALTERING PROTEIN FUNCTION BY PHARMACOLOGICAL TARGETING OF MEMBRANE DOMAINS” (University of Virginia Patent Foundation, priority 2021, published 2024)
Structures can show the parent of a compound that is named as a salt.

Columns and labels:
[1] = system: human peripheral myelin protein 22 (PMP22); assay: HTS of FDA-approved drug library for compounds that alter phase partitioning of PMP22 in GPMVs; conditions: for hit class in PMP22 screen: 1184 compound library of FDA-approved drugs; for hit class in PMP22 screen / shift of PMP22 phase preference in favor of the ordered (raft) phase: 10 micromolar; for shift of PMP22 phase preference in favor of the ordered (raft) phase: control value 78%, reproducible at 1 micromolar; for effect on relative ordered (raft) vs. disordered phase proportions: in the absence or presence of PMP22
Description: By way of example and not limitation, in some embodiments PMP22 containing a MYC epitope sequence was employed in the GPMVs (hereafter referred to as “PMP22”, such as by expressing a MYC-Tagged PMP22 in Hela cells, followed by formation of PMP22 containing GPMVs, followed by addition of a commercial fluorescently labeled anti-MYC antibody to confer fluorescence to PMP22 in GPMVs, thereby making PMP22 detectable to enable its quantitation in the raft phase domains versus in the non-raft phase domains. See Marinko et al. (2020) Proc Natl Acad Sci USA 117(25):14168-14177.
The assay was scaled up to carry out high throughput screens (HTS). The strategy for these screens is similar to those outlined for our approach to finding compounds that shift the raft vs. non-raft phase domain distribution in GPMVs, except that in this case we were interested in discovering compounds that either shift PMP22 out of rafts or enhance its partitioning into the ordered raft phase domain. This pilot HTS screen involved the 1184 compound library of FDA-approved drugs at a concentration of 10 micromolar each and was carried out in the Vanderbilt HTS Core. We predicted that select compounds might sometimes change not only the phase partitioning of PMP22, but also change the actual amounts of ordered (raft) versus disordered phase domains that are present. We also wondered whether PMP22 and certain compounds might act synergistically (through any one of several possible mechanisms) to alter membrane phase behavior. This could potentially cause the compounds to have different effects on the ratio of raft versus disordered domains in the absence relative to the presence of the PMP22 protein. To test these possibilities, we compared the results of our screen to the results of preliminary screens carried out on the same compounds in GPMVs lacking expressed PMP22. This allowed us to directly evaluate the effects of the compounds under both conditions. The plots shown in FIGS. 28A and 28B, as well as additional data not shown reveal several classes of PMP22-impacting hits from this 1184 compound library: […]

GPMVs from HeLa cells = assay: Di4 fluorescence lifetime imaging (lipid packing in GPMVs); parameters: species or system human; conditions: TLCK 1 μM, C6-ceramide 1 μM, MβCD 5 mM
Description: It was also of interest how TLCK and C6-ceramide impact other properties of the membrane compared to treatments such as cholesterol depletion that are commonly used to disrupt rafts in cells (Zidovetzki & Levitan, 2007). To test this, we examined their effects on membrane lipid packing and fluidity using a fluorescent reporter of membrane packing, Di-4-[…] (Di4) (Jin et al., 2006; Owen et al., 2006; Sezgin et al., 2014; Levental et al., 2020b; Lorent et al., 2020). As a control, we subjected GPMVs to cholesterol depletion using 5 mM MβCD. The photophysical characteristics of Di4, including its lifetime, are dependent on lipid packing in membranes. In particular, a lower Di4 lifetime is indicative of loose packing and a more fluid membrane environment whereas higher Di4 lifetimes point to a less fluid membranes and tighter lipid packing. […] The phase separated vesicles were characterized by two populations of lifetimes, corresponding to the Lo phase (higher lifetime) and Ld phase (lower lifetime) (FIGS. 11A-11F).
GPMVs were prepared as previously described by Sezgin, E, et al., Nat Protoc 2012, 7 (6), 1042-51. In brief, HeLa cells were washed twice with GPMV buffer (2 mM CaCl2)/10 mM HEPES/0.15 M NaCl, pH 7.4), then washed twice with GPMV active buffer (GPMV buffer containing 25 mM formaldehyde and 2 mM DTT). Cells were then incubated with GPMV active buffer for 1-2 hours at 37° C. with shaking at 90-95 RPM. The GPMV-containing supernatant was decanted into a centrifuge tube and GPMVs were allowed to settle for 1 h. Aliquots of GPMVs (100 μL) were pipetted from the bottom of the Eppendorf tube into separate tubes and treated with DMSO (0.1%), 1 μM TLCK, 1 μM C6-ceramide or 5 mM MbCD. After 5 min, Di 4 […] (Di4) (Thermo Scientific) was added to a final concentration of […] from a stock solution of 1 mg/mL Di4 in ethanol. The GPMVs were then sandwiched between two coverslips coated with 1 mg/mL bovine serum albumin (BSA) solution and allowed to incubate for an additional 20 min prior to lifetime measurements.
Di4 lifetime images were performed on a Leica TCS SP8 system comprising a Leica DMi8 inverted scanning confocal microscope with time-correlated single photon counting (TC-SPC) system and an 80 MHz-pulsed supercontinuum white light laser which allows continuously tunable excitation in the visible range coupled with filter-free detection. Samples were imaged using an HC PL APO CS2 63X/1.20 water objective. Di4 was excited at 488 nm and the emission was collected in the 550-800 nm range. The photon count rate was kept under 0.5 photons per laser pulse by adjusting the laser power, and sufficient frames were cumulatively acquired to obtain at least 100 photons per pixel. The fluorescence decay curves were fit with a bi-exponential re-convolution function adjusted to the instrument response function, and the average intensity-weighted lifetime was calculated for individual vesicles or area of interest and represented in the FLIM images as Di4 lifetime. Data are reported from two independent experiments. Statistical analyses were performed using GraphPad Prism 9.3.0.

| Molecule | hit class in PMP22 screen [1] | shift of PMP22 phase preference in favor of the ordered (raft) phase [1] [%] | effect on relative ordered (raft) vs. disordered phase proportions [1] | phase state of GPMVs in FLIM images (GPMVs from HeLa cells; room temperature) | average Di4 lifetime (GPMVs from HeLa cells; single-phase GPMVs (MβCD: average across all domains), control 2.53±0.06 ns, mean±SD) [ns] |
| --- | --- | --- | --- | --- | --- |
| CN(C)c1ccc(C(=C2C=CC(=[N+](C)C)C=C2)c2ccc(N(C)C)cc2)cc1 [Crystal violet] | false positive | – | – | – | – |
| Clc1ccc2c(c1)CCc1cccnc1C2=C1CCNCC1 [Desloratadine] | Class I | ~10 | without significantly perturbing | – | – |
| CSc1ccc2c(c1)N(CCC1CCCCN1C)c1ccccc1S2 (stereo not drawn) [Thioridazine-HCl] | Class I | ~10 | without significantly perturbing | – | – |
| MβCD | – | – | – | multiple domains with the same lifetime | 1.99±0.09 |
